pIC50: −log10 of the molar value.
Target: T1, recombinant human ACC2 (Homo sapiens, UniProt O00763)
T1 construct: a cDNA encoding human ACC2 (27-2458) was cloned from human kidney cDNA library (Clontech); His-tag (N); made in house; host or cells: Sf-9 insect cells (Bac-to-Bac baculovirus)
Assay: Measurement of inhibitory activity on human ACC2 (MALDI-TOF MS, acetyl CoA to malonyl CoA conversion)
Assay type: biochemical
Conditions: not given

T1 sequence (O00763 27-2458): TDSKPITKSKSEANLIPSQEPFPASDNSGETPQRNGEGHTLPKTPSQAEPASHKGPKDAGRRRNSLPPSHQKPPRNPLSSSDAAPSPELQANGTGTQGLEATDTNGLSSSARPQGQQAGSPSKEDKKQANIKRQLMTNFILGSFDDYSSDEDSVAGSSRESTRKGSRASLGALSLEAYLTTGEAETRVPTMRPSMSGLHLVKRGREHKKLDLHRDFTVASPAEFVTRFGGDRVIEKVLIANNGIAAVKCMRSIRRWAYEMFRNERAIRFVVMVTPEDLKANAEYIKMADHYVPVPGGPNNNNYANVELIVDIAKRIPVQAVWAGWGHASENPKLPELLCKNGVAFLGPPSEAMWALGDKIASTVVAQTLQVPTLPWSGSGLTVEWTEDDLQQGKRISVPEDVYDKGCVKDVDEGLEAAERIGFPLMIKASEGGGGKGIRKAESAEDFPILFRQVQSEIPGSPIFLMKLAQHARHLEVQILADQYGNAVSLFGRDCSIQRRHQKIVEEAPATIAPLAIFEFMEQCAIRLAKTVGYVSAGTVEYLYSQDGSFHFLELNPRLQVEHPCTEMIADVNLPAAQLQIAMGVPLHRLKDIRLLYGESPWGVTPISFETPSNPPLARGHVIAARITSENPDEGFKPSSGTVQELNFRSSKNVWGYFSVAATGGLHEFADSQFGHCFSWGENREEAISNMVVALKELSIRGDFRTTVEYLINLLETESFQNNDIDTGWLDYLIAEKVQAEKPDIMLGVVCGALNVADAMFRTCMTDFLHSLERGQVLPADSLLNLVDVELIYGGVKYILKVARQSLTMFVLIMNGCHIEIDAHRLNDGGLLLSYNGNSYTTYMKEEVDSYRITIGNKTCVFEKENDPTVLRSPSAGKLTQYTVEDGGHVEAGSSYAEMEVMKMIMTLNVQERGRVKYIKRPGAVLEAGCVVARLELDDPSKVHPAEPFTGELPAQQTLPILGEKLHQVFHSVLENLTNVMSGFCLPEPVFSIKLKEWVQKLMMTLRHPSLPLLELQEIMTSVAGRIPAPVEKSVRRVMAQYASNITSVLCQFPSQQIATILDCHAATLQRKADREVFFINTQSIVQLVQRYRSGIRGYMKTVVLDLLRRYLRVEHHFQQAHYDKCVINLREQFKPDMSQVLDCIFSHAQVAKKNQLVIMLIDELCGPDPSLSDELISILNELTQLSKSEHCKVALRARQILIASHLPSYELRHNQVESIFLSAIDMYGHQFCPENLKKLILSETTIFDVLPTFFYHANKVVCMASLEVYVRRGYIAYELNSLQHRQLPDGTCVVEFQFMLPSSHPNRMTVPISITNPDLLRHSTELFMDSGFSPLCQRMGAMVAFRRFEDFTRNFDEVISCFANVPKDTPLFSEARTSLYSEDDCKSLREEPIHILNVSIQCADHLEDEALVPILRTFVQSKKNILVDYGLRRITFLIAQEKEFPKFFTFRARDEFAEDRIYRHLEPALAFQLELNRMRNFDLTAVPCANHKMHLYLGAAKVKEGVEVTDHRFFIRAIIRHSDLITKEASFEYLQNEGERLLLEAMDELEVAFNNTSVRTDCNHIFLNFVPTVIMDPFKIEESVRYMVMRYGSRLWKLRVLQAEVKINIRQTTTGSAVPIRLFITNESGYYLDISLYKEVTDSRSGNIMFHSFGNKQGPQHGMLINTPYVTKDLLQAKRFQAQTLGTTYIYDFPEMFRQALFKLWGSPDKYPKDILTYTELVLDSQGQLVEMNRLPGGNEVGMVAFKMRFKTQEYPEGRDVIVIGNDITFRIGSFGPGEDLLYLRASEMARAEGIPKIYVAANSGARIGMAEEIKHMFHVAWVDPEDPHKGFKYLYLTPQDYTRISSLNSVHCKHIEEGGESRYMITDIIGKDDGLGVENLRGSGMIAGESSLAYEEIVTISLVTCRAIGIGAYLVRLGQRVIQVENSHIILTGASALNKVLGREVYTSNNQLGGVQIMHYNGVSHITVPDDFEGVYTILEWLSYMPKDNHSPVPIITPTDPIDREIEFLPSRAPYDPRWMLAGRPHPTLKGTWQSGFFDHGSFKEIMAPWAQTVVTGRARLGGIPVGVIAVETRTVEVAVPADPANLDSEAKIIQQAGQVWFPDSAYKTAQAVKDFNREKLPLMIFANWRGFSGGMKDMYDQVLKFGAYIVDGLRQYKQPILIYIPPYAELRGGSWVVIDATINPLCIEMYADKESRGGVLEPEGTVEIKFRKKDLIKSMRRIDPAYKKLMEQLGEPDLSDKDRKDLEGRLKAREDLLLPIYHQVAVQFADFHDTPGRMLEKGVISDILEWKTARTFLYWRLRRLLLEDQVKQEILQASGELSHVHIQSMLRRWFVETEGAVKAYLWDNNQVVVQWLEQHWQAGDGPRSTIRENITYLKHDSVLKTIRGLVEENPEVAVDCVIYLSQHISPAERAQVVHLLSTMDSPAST

SMILES	pIC50
CCCc1ccc(Oc2ccc(/C=C/[C@H](C)NC(=O)CNC(C)=O)cn2)c(Cl)c1 [Compound I-392]	6.01
CCCc1cc(Cl)c(Oc2ccc(/C=C/[C@H](C)NC(N)=O)cn2)c(Cl)c1 [Compound I-387]	6.25
CC(=O)N[C@@H](C)/C=C/c1ccc(Oc2ccc(-c3ncccn3)cc2Cl)nc1 [Compound I-418]	7.01
CC(=O)N[C@@H](C)/C=C/c1cc(Oc2ccc(OCC3CC3)cc2Cl)nn1C [Compound I-395]	5.38
CCOc1ccc(Oc2ccc(/C=C/[C@H](C)CC(=O)NC)cn2)c(Cl)c1 [Compound I-410]	6.82
CCCc1cc(Cl)c(Oc2ccc(/C=C/[C@H](C)NC(C)=O)cn2)c(Cl)c1 [Compound I-385]	6.80

Further lines, results first:

pIC50	SMILES
6.77	CC(=O)N[C@@H](C)/C=C/c1ccc(Oc2ccc(-c3nccs3)cc2Cl)nc1 [Compound I-416]
7.82	CC(=O)N[C@@H](C)/C=C/c1ccc(Oc2ccc3c(c2)CCC3)nc1 [Compound I-397]
5.89	CC(=O)N[C@@H](C)/C=C/c1ccc(Oc2ccc(N3CCOCC3)cc2Cl)nc1 [Compound I-382]
5.49	CCC1(c2ccc(Oc3ccc(/C=C/[C@H](C)NC(C)=O)cn3)c(Cl)c2)COC1 [Compound I-400]
7.37	CC(=O)N[C@@H](C)/C=C/c1ccc(Oc2ccc3c(c2)CCCC3)nc1 [Compound I-398]
7.25	CC(=O)N[C@@H](C)/C=C/c1ccc(Oc2ccc(C3CCC3)cc2Cl)nc1 [Compound I-401]

Same assay, conditions: inhibition activity on human ACC2, Table 79; read-out: IC50

SMILES	pIC50
C[C@@H](/C=C/c1cnc(Oc2ccc(OCC3CC3)cc2Cl)s1)NC(=O)C1(C#N)CC1 [Compound I-97]	6.92
C[C@@H](/C=C/c1cnc(Oc2ccc(OCC3CC3)cc2Cl)s1)NC(=O)C1(C)CC1 [Compound I-83]	7.32
CC(=O)N[C@@H](C)/C=C/c1cnc(Oc2cccc(OC(C)C)c2C)s1 [Compound I-9]	7.09
C[C@@H](/C=C/c1cnc(Oc2ccc(OCC3CC3)cc2Cl)s1)NC(=O)C1CC1 [Compound I-76]	7.52
CC(=O)N[C@@H](C)/C=C/c1cnc(Oc2ccc(OCC3CC3)cc2C#N)s1 [Compound I-6]	7.11
CC(=O)N[C@@H](C)/C=C/c1cnn(Cc2ccc(OCC3CC3)cc2F)c1 [Compound I-67]	5.92
CCOc1cccc(Oc2ccc(/C=C/[C@H](C)NC(C)=O)cn2)c1Cl [Compound I-48]	7.43
CCOc1ccc(COc2ccc(/C=C/[C@H](C)NC(C)=O)cn2)cc1 [Compound I-15]	7.15
CC(=O)N[C@@H](C)/C=C/c1cnc(Oc2ccc(NCC3CC3)cc2Cl)nc1 [Compound I-54]	6.37
C[C@@H](/C=C/c1cnc(Oc2ccc(OCC3CC3)cc2Cl)s1)NC(=O)CCCN1CCCC1 [Compound I-88]	6.05

Other lines, results leading:

pIC50	SMILES
7.14	CC(=O)N[C@@H](C)/C=C/c1ccc(Oc2cccc(OC(C)C)c2)nc1 [Compound I-49]
7.85	CC(=O)N[C@@H](C)/C=C/c1ccc(Oc2ccc(N3CCCC3)cc2Cl)nc1 [Compound I-32]
5.92	COc1ccc(Cl)c(Oc2ccc(/C=C/[C@H](C)NC(C)=O)cn2)c1 [Compound I-27]

Same assay, conditions: inhibition activity on human ACC2, Table 80; read-out: IC50

pIC50	SMILES
5.85	CCOCn1ccnc1-c1cc(C(=O)N[C@@H](C)/C=C/c2cnc(Oc3ccc(OCC4CC4)cc3Cl)s2)ccn1 [Compound I-158]
7.74	C[C@@H](/C=C/c1cnc(Oc2ccc(OCC3CC3)cc2Cl)s1)NC(=O)c1ccnc(C(=O)NCCN(C)C)c1 [Compound I-214]
7.66	CCCOc1ccc(Oc2ncc(/C=C/[C@H](C)NC(=O)c3ccnc(C(=O)OCC)c3)s2)c(Cl)c1 [Compound I-168]
7.82	C[C@@H](/C=C/c1cnn(Cc2ccc(OCC3CC3)cc2Cl)c1)NC(=O)c1ccnc(C(=O)NC(C)(C)C)c1 [Compound I-236]
6.43	CCCOc1ccc(Oc2ncc(/C=C/[C@H](C)NC(=O)c3ccncc3)s2)c(Cl)c1 [Compound I-169]
5.74	CC(C)S(=O)(=O)NCCC(=O)N[C@@H](C)/C=C/c1cnc(Oc2ccc(OCC3CC3)cc2Cl)s1 [Compound I-134]
6.16	C[C@@H](/C=C/c1cnc(Oc2ccc(OCC3CC3)cc2Cl)s1)NC(=O)c1cccc(-c2ncco2)c1 [Compound I-144]

Same assay, conditions: inhibition activity on human ACC2, Table 82; read-out: IC50

SMILES	pIC50
CCCc1ccc(Oc2ccc(/C=C/[C@H](C)NC(C)=O)cc2)nc1 [Compound I-368]	6.96
CC(=O)N[C@@H](C)/C=C/c1ccc(Oc2ccc(Cc3ccccc3)cc2Cl)nc1 [Compound I-358]	7.57
CC(=O)N[C@@H](C)/C=C/c1ccc(Oc2ccc(CC(C)(C)C)cc2Cl)nc1 [Compound I-371]	7.22
CC(=O)N[C@@H](C)/C=C/c1ccc(Oc2ccc(-c3cccc(C#N)c3)cc2Cl)nc1 [Compound I-346]	6.36
CCOc1ccc(NCc2ccc(/C=C/[C@H](C)NC(C)=O)cn2)cc1 [Compound I-356]	5.27
CCNC(=O)c1cc(C(=O)N[C@@H](C)/C=C/c2cnn(Cc3c(F)cc(OCC4CC4)cc3F)c2)ccn1 [Compound I-319]	7.29
CC(=O)N[C@@H](C)/C=C/c1ccc(Oc2ccc(-c3ccc(C)cc3)cc2Cl)nc1 [Compound I-344]	7.29
COc1ccc(-c2ccc(Oc3ccc(/C=C/[C@H](C)NC(C)=O)cn3)c(Cl)c2)cn1 [Compound I-348]	6.68
CC(=O)N[C@@H](C)/C=C/c1ccc(Oc2ccc(SCC(C)C)cc2Cl)nc1 [Compound I-364]	7.89

More lines, now with the values ahead:

pIC50	SMILES
7.72	CC(=O)N[C@@H](C)/C=C/c1ccc(Oc2ccc(C3=CCC4(CC3)CC4)cc2Cl)nc1 [Compound I-355]
6.64	CCC(O)c1ccc(Oc2ccc(/C=C/[C@H](C)NC(C)=O)cn2)c(Cl)c1 (stereo partly drawn) [Compound I-359]
7.80	CC(=O)N[C@@H](C)/C=C/c1ccc(Oc2ccc(C3=CCC4(CC3)CC4)c(Cl)c2)nc1 [Compound I-378]
8.04	CCSc1ccc(Oc2ccc(/C=C/[C@H](C)NC(C)=O)cn2)c(Cl)c1 [Compound I-360]
7.62	CC(=O)N[C@@H](C)/C=C/c1ccc(Oc2ccc(C3(C)CC3)cc2Cl)nc1 [Compound I-369]

Same assay, conditions: inhibition activity on human ACC2, Table 84; read-out: IC50

SMILES	pIC50
CCC(=O)c1ccc(Oc2ncc(/C=C/[C@H](C)NC(C)=O)s2)c(Cl)c1 [Compound I-431]	7.07
CCCc1ccc(Oc2ccc(/C=C(\F)[C@H](C)NC(C)=O)cn2)c(Cl)c1 [Compound I-459]	7.92
CCCc1cccc(Oc2ccc(/C=C/[C@H](C)NC(C)=O)cn2)c1Cl [Compound I-469]	7.44
CC(=O)N[C@@H](C)/C=C/c1ccc(Oc2cnc(N3CCC(F)(F)CC3)nc2)nc1 [Compound I-517]	7.33
CCCc1ccc(Oc2cnc(/C=C/[C@H](C)NC(C)=O)cn2)c(Cl)c1 [Compound I-433]	7.31
CCCc1ccc(Oc2ccc(/C=C/[C@H](C)NC(C)=O)cn2)c(C(F)(F)F)c1 [Compound I-439]	7.09
CC(=O)N[C@@H](C)/C=C/c1ccc(Oc2cc3c(cc2Cl)OC(C)(C)C3)nc1 [Compound I-507]	7.37
CC(=O)N[C@@H](C)/C=C/c1ccc(Oc2ccc(OCc3ccccc3)cc2Cl)nc1 [Compound I-450]	7.22
CC(=O)N[C@@H](C)/C=C/c1ccc(Oc2ccc3c(c2)OC(F)(F)C(F)(F)O3)nc1 [Compound I-482]	8.09
CC(=O)N[C@@H](C)/C=C/c1ccc(Oc2ccc3nc(C(C)(C)C)sc3c2)nc1 [Compound I-504]	8.19
CCCc1cc(Cl)c(Oc2ccc(/C=C/[C@H](C)NC(C)=O)cn2)cc1Cl [Compound I-458]	7.59
CCOC(=O)c1cnc(Oc2ccc(Oc3ccc(/C=C/[C@H](C)NC(C)=O)cn3)c(Cl)c2)s1 [Compound I-441]	6.16

Results, then the compound that gave them:

pIC50	SMILES
7.28	CC(=O)N[C@@H](C)/C=C/c1ccc(Oc2ccc3c(c2)OC(F)(F)O3)nc1 [Compound I-483]
6.96	CC(=O)N[C@@H](C)/C=C/c1ccc(Oc2ccc3c(C)nsc3c2)nc1 [Compound I-486]
6.28	CCN1CCc2cc(Oc3ccc(/C=C/[C@H](C)NC(C)=O)cn3)ccc2C1=O [Compound I-480]
7.85	CC(=O)N[C@@H](C)/C=C/c1ccc(Oc2ccc(C3CC3C)cc2Cl)nc1 (stereo partly drawn) [Compound I-494]
7.23	CC(=O)N[C@@H](C)/C=C/c1ccc(Oc2ccc3c(c2)OC(C)(C)C3)nc1 [Compound I-519]
7.43	CC(=O)N[C@@H](C)/C=C/c1ccc(Oc2ccc3c(c2)OCCO3)nc1 [Compound I-472]
7.00	CC(=O)N[C@@H](C)/C=C/c1ccc(Oc2ccc(C3(C)CC3(F)F)cc2Cl)nc1 (stereo partly drawn) [Compound I-434]
6.36	CC(=O)N[C@@H](C)/C=C/c1ccc(Oc2cc3c(cc2Cl)OCC3)nc1 [Compound I-479]
6.77	CCCc1ccc(Cl)c(Oc2ccc(/C=C/[C@H](C)NC(C)=O)cn2)c1 [Compound I-475]
6.14	CC(=O)N[C@@H](C)/C=C/c1ccc(Oc2ccc(Oc3cncs3)cc2Cl)nc1 [Compound I-453]
7.80	CC(=O)N[C@@H](C)/C=C/c1ccc(Oc2ccc3c(c2Cl)CCC3(F)F)nc1 [Compound I-466]

Same assay, conditions: inhibition activity on human ACC2, untitled table (Table 81); read-out: IC50

SMILES	pIC50
CCOc1ccc(Oc2cnc(/C=C/[C@H](C)NC(C)=O)cn2)c(Cl)c1 [Compound I-286]	7.32
CC(=O)N[C@@H](C)/C=C/c1cnn(Cc2cc(F)c(OCC3CC3)c(Cl)c2)c1 [Compound I-265]	5.96
CCNC(=O)c1cc(C(=O)N[C@@H](C)/C=C/c2cnn(Cc3ccc(F)c(Cl)c3)c2)ccn1 [Compound I-314]	6.02

Second part, the compound after the results:

pIC50	SMILES
5.85	CC(=O)N[C@@H](C)/C=C/c1ccc(Oc2ccc(OCCO)cc2Cl)nc1 [Compound I-304]
7.55	CC(=O)N[C@@H](C)/C=C/c1ccc(Oc2ccc(Br)c(Cl)c2)nc1 [Compound I-289]
6.82	CC(=O)N[C@@H](C)/C=C/c1ccc(Oc2ccc3c(c2)OCC(=O)N3CC2CC2)nc1 [Compound I-260]
